The text below walks through data of patent US20200323986A1, “HYDROPHOBIC ARENESULFONATE SALTS” (Theracaine LLC, priority 2017, published 2020).

Series [1] is described as follows: Pharmacokinetics of caine anesthetic salt particles after a single subcutaneous dose (plasma drug concentration versus time). As to conditions: rat; for initial spike in bupivacaine plasma concentration: single subcutaneous dose, 650 μm particles in PEG200, Groups 1 and 2; for delivery of lidocaine over time (plasma lidocaine concentration versus time) / initial spike in plasma lidocaine concentration: in vivo, sc. Here is the method: (§1) The test articles are drug compositions consisting of B-4BrBSA-650, B-35BrBSA-650, L-4BrBSA-650, and L-35BrBSA-650 particles in a polyethylene glycol 200 vehicle (PEG200; Sigma-Aldrich, polyethylene glycol 200 Bioultra). The test articles were prepared by adding a volume of […] to an appropriate weighed amount of test article in a vial, gently mixed, and then applied uniformly via a single subcutaneous dose via incision on the dorsum of female Sprague Dawley rats.
(§2) Doses were administered via an incision on the dorsal region, as a subcutaneous liquid application (suspension of powder). Each test article was administered at an amount determined by each animal's weight using the calculated mg per kg-bw (bodyweight) as shown in the table below.
(§3) The vehicle was provided as a liquid in an individual container. […] A volume of 100 μL of vehicle was added to each individual dose, allowed to soak, and shaken occasionally to uniformly mix the particles with the PEG200.
(§4) For all groups, the test article suspension was applied to the subcutaneum using a plastic spatula. The test article was distributed as evenly as possible. Incisions were closed with staples, and the animals allowed to recover. All animals received analgesia and antibiotic treatment.
(§5) Cage side observations were performed daily.

Series [2] can be described thus: Clinical (cage side) observations and body weight after a single subcutaneous dose. The conditions noted are these: rat; for tolerability as administered (summary): particles in PEG200, 114/134/161/193 mg/kg-bw (Groups 1-4). As for the experimental part:
as §1, §2, §3, §4, §5

Series [3] is described as follows: Gross evaluation of dose sites and general gross necropsy at study termination. As to conditions: rat. Format: in vivo, female Sprague Dawley rats. As for the experimental part: Sigma-Aldrich, polyethylene glycol 200 Bioultra). […] The test article was distributed as evenly as possible. […] All animals received analgesia and antibiotic treatment. Cage side observations were performed daily.

The mark [4] stands for this setting: animals that lost weight, over the course of the study.
The mark [5] stands for this setting: five animals per group, single subcutaneous dose.
The mark [6] stands for this setting: group average, single subcutaneous dose.
Setting [7] is: at study termination (after 96 h sampling).

As for `CCCCN1CCCCC1C(=O)Nc1c(C)cccc1C.O=S(=O)(O)c1ccc(Br)cc1` (centres unmarked) [Example B-4BrBSA-650, Bupivacaine 4-bromobenzenesulfonate salt], the “initial spike in bupivacaine plasma concentration” value in series [1] (FIGS. 1-2) is reported as “initial spike in bupivacaine plasma concentration exhibited by test article 1”. In series [2] (setting [4]), the weight loss entry is reported as “less than 5 % total body weight”. For the same compound, the “animals that lost weight over the course of the study” value in series [2] (setting [5]) was “two out of five”. Moreover, in series [2] (setting [6]), the “group mean body weight change at the end of the study” value (shortened to “group mean body weight change”) was 4 gram. Also, the “tolerability as administered (summary)” value in series [2] (single subcutaneous dose) was “well tolerated”. Further, in series [3] (at study termination), the “encapsulation at dose site” value is reported as “No additional encapsulation or residual test article was visible”; the “other dose site findings (hematoma, unknown material)” value (from here on “other dose site findings”) was “Hematomas were present in Animals #2 and #4, with encapsulation of clotted blood in Animal #4”; the “vascularization surrounding the incision sites (dose site observation)” value was “very slight to slight vascularization”. Further, the “residual test article visible at dose site” value (shortened to “residual test article visible”) in series [3] (setting [7]) is “No additional encapsulation or residual test article was visible”.

In the case of `CCN(CC)CC(=O)Nc1c(C)cccc1C.Cc1c(Br)cc(S(=O)(=O)O)cc1Br` [L-35BrBSA-650, Lidocaine 3,5-dibromo-4-methybenzenesulfonate salt], in series [1], the “delivery of lidocaine over time (plasma lidocaine concentration versus time)” value is “at least 24 hours” and the “initial spike in plasma lidocaine concentration” value was “avoids the initial spike in plasma lidocaine concentration”. The weight loss entry in series [2] (in vivo) is on record as “less than 5 % total body weight”. In addition, in series [2] (in vivo, sc), the “animals that lost weight over the course of the study” value is “two out of five” and the “group mean body weight change” value is 1 gram. Also, the “tolerability as administered (summary)” value in series [2] (single subcutaneous dose) is recorded as “well tolerated”. Besides, in series [3] (in vivo), the “encapsulation at dose site” value is reported as “No residual test article or encapsulation was visible”, the “residual test article visible” value is “No residual test article or encapsulation was visible” and the “vascularization surrounding the incision sites (dose site observation)” value is “very slight to moderate vascularization”.

On to `CCCCN1CCCCC1C(=O)Nc1c(C)cccc1C.Cc1c(Br)cc(S(=O)(=O)O)cc1Br` (centres unmarked) [B-35BrBSA-650, Bupivacaine 3,5-dibromo-4-methybenzenesulfonate salt], for which the “duration of delivery of bupivacaine (plasma bupivacaine concentration versus time)” value in series [1] (single subcutaneous dose via dorsal incision, 650 μm particles in 100 μL PEG200, 114 (Group 1) / 134 (Group 2) mg/kg-bw, plasma to 96 h, FIGS. 1-2) is “greater duration of delivery of bupivacaine compared to test article 1”. The “initial spike in bupivacaine plasma concentration” value in series [1] (FIGS. 1-2) is “without the initial spike in bupivacaine plasma concentration”. For the same compound, in series [2] (setting [4]), the weight loss result is listed as “less than 5 % total body weight”. In addition, in series [2] (setting [5]), the “animals that lost weight over the course of the study” value is listed as “two out of five”. The “group mean body weight change” value in series [2] (setting [6]) came out at 1 gram. For the same compound, in series [2] (single subcutaneous dose), the “tolerability as administered (summary)” value is listed as “well tolerated”. In series [3] (at study termination), the “encapsulation at dose site” value is recorded as “No encapsulation was present”; the “other dose site findings” value is “A small hematoma was present in Animal #7”; the “vascularization surrounding the incision sites (dose site observation)” value is listed as “very slight to slight vascularization”. Moreover, the “residual test article visible” value in series [3] (setting [7]) is recorded as “Small areas of residual test article were visible at or near the incision site in all animals”.

For the compound `CCN(CC)CC(=O)Nc1c(C)cccc1C.O=S(=O)(O)c1ccc(Br)cc1` [Example L-4BrBSA-650, Lidocaine 4-bromobenzenesulfonate salt], in series [1], the “delivery of lidocaine over time (plasma lidocaine concentration versus time)” value is listed as “at least 24 hours” and the “initial spike in plasma lidocaine concentration” value is reported as “initial spike in plasma lidocaine concentration exhibited by test article 3”. The weight loss entry in series [2] (in vivo) was “less than 5 % total body weight”. Besides, in series [2] (in vivo, sc), the “animals that lost weight over the course of the study” value is recorded as “four out of five” and the “group mean body weight change” value is recorded as −1 gram. Moreover, the survival entry in series [2] (single subcutaneous dose, to scheduled euthanasia (96 h study)) is “all animals survived until scheduled euthanasia”. For the same compound, in series [3] (in vivo), the “encapsulation size at dose site” value was 0.5-3 cm; the “other dose site findings” value was “Areas of an unknown brown material were present in Animal #13”; the “residual test article visible” value is on record as “No residual test article was visible”; the “vascularization surrounding the incision sites (dose site observation)” value is reported as “moderate to severe vascularization”.
